Earlier results, collected in US20180271812A1, “CALCIUM BASED CLINICAL MATERIAL WITH ANTIMICROBIAL PROPERTIES AND METHOD OF FORMING FOR PREVENTION OR TREATMENT OF INFECTION” (Biocomposites Limited, priority 2017, published 2018).
Where two headings read alike, the source gives them in different places.

Experiments:
[1] = tested on: Staphylococcus aureus; settings: breakpoint, EUCAST clinical breakpoints v7.0 (Jan 2017)
[2] = background statement, no test described
[3] = tested on: Pseudomonas aeruginosa; settings: breakpoint
[4] = American Society for Microbiology Kirby-Bauer disk diffusion susceptibility test protocol
[5] = EUCAST clinical breakpoints v7.0 (Jan 2017)

| Compound | ZOI against Staphylococcus aureus, Resistant [1] [mm] | ZOI against Staphylococcus aureus, Susceptible [1] [mm] | pH [2] | ZOI against Pseudomonas aeruginosa, Resistant [3, 4] [mm] | ZOI against Pseudomonas aeruginosa, Susceptible [3, 4] [mm] | ZOI against Pseudomonas aeruginosa, Resistant [3, 5] [mm] | ZOI against Pseudomonas aeruginosa, Susceptible [3, 5] [mm] |
| --- | --- | --- | --- | --- | --- | --- | --- |
| NCC[C@H](O)C(=O)N[C@@H]1C[C@H](N)[C@@H](O[C@H]2O[C@H](CN)[C@@H](O)[C@H](O)[C@H]2O)[C@H](O)[C@H]1O[C@H]1O[C@H](CO)[C@@H](O)[C@H](N)[C@H]1O [Amikacin] | <16 | ≥18 |  |  |  |  |  |
| C/C=C/C=C/C(=O)O [Sorbic acid] |  |  | 4.76 |  |  |  |  |
| CN(C)c1cc(NC(=O)CNC(C)(C)C)c(O)c2c1C[C@H]1C[C@H]3[C@H](N(C)C)C(O)=C(C(N)=O)C(=O)[C@@]3(O)C(O)=C1C2=O [Tigecycline] | <18 | ≥18 |  |  |  |  |  |
| NC[C@H]1O[C@H](O[C@H]2[C@H](O)[C@@H](O[C@H]3O[C@H](CO)[C@@H](O)[C@H](N)[C@H]3O)[C@H](N)C[C@@H]2N)[C@H](N)C[C@@H]1O [Tobramycin] | <18 | ≥18 |  | ≤12 | ≥15 | <16 | ≥16 |
| Gentamicin | <18 | ≥18 |  | ≤12 | ≥15 | <15 | ≥15 |
